Source: patent publication US4968686A, “Acyclic pyrrolo [2,3-d]pyrimidine analogs as antiviral agents” (The Regents of The University of Michigan, priority 1989, dated 1990)

Experiments:
HSV-1 HF strain = assay: HSV-1 reduction assay, HF strain; format: cell-based, herpes simplex virus type 1 (HF strain); details: Human alphaherpesvirus 1; read-out: I50 with HF strain of HSV-1
Excerpt: The 148 strain of HSV-1 was used in most experiments and was provided by Dr. T. W. Schafer of Schering corporation. The HF strain of HSV-1 was used in selected experiments and was obtained from Dr. G. H. Cohen, University of Pennsylvania. The Towne strain, plaque-purified isolate Po, of HCMV was a gift of Dr. Mark Stinski, University of Iowa.
HSV-1 was titered using monolayer cultures of BSC-1 cells. Cells were planted at 3×10^5 cells/well using 6-well cluster dishes. MEM(E) supplemented with 10% fetal bovine serum was employed as medium. After 22-24 hours, cells were 90% confluent and were inoculated in triplicate using at least three ten-fold dilutions with 0.2 ml of the virus suspension to be assayed and incubated in a humidified 4% CO2 […] atmosphere for one hour to permit viral adsorption. Following virus adsorption, the cell sheet was overlayed with 5 ml of MEM(E) with 5% serum plus 0.5% methocel (4000 CPS) and incubated an additional two to three days. Cells were fixed and stained with 0.1% crystal violet in 20% methanol and macroscopic plaques enumerated.
Plaque reduction experiments were HSV-1 were performed using monolayer cultures of BSC-1 cells. The assay was performed exactly as described above except that the 0.2 ml virus suspension contained approximately 100 p.f.u. of HSV-1. Compounds to be tested were dissolved in the overlay medium at concentrations usually ranging from 0.1 to 100 μM in half-or-one logarithm10 dilutions. Titer reduction assays were performed by planting KB cells in 25 cm^2 plastic tissue culture flasks 10 to 24 hours prior to infection. At the onset of experiments, logarithmically growing replicate monolayer cultures were 60 to 80% confluent and contained 2.5 to 4.5×10^6 cells/flask. Medium was decanted and the cultures were infected with 2 to 10 p.f.u. of HSV-1 per cell. Virus was contained in 1.0 ml of VGM supplemented with 5% fetal bovine serum. After a 1 hour adsorption period at […], the cell sheet was rinsed twice with 2 ml of VGM without serum to remove unadsorbed virus and 5 ml of VGM containing drugs at three to five selected concentrations added in duplicate. Following an 18- to 22-hour incubation at 37° C., infected monolayers were treated with EDTA-trypsin to suspend the cells; aliquots were removed, subjected to three cycles of freezing and thawing, and stored at -76° C. for subsequent virus assay. Virus was titered on BSC-1 cells as described above.
Dose-response relationships were used to compare drug effects. These were constructed by linearly regressing the percent inhibition of parameters derived in the preceding sections against log drug concentrations. The 50% inhibitory (I50) concentrations were calculated from the regression lines using the methods described by Goldstein. […]

KB cells = assay: Growth of KB cells (population doubling times); format: cell-based, human; details: for Population Doubling time: KB cells, control 23 hr
Experimental: (§1) Population doubling times and cell viability were measured in uninfected HFF and/or KB cells. Cells were planted in replicate 6-well plastic tissue culture dishes or in 25 cm^2 flasks as described above in part 1. Following an incubation period during which cells attached to the substrate, medium was decanted, the cell sheet rinsed once with HBS, and fresh medium added. The medium consisted of MEM(E) with 1.1 gm NaHCO3 /liter and 10% fetal bovine or calf serum plus appropriate log or half-log concentrations of drug. After additional periods of incubation from 1 to 72 hours at 37° C., cells were harvested by means of 0.05% trypsin plus 0.02% EDTA in a HEPES-buffered salt solution. Cells were enumerated using either a Coulter counter or a hemocytometer and viability determining using trypsan blue dye exclusion.
In more extensive cytotoxicity testing, the halogenated compounds were tested for effects on the growth of KB cells. Populations doubling times were calculated from the logarithmic portions of growth curves and were as follows: […]

HFF cells = assay: Growth of HFF cells; format: cell-based, human; details: for HFF population doublings in 70 hours: 100 μM, control two doublings
Experimental: as §1
The effect of these compounds on the growth of human diploid fibroblasts (HFF cells) was less pronounced. During a 70-hour incubation, control cells underwent two doublings. […] A 100 μM concentration reduced the number of cells by less than 10%.

[1] = comparison with UMJD 102 / UMJD 183

| Compound | IC50 (HSV-1 HF strain) | Population Doubling time (KB cells; 1.0 μM) | Population Doubling time (KB cells; 10.0 μM) | Population Doubling time (KB cells; 0.1 μM) | effect on KB cell growth (in words) (KB cells; [1]) | effect on growth of HFF cells relative to UMJD 100 (in words) (HFF cells) | HFF population doublings in 70 hours (HFF cells; 70 hours) | also measured |
| --- | --- | --- | --- | --- | --- | --- | --- | --- |
| Nc1nc2c(ncn2COCCO)c(=O)[nH]1 [Acyclovir, reference compound] | 36 µM | – | – | – | – | – | – | – |
| Nc1ncnc2c1c(Cl)cn2COCCO [UMJD 100, 4-Amino-5-chloro-7-(2-hydroxyethoxymethyl)pyrrolo[2,3-d]-pyrimidine] | > 100 µM | 25 h | 25 h | – | – | – | – | effect on KB cell growth (in words) (KB cells; 100 μM): only a minor extent; Population Doubling time (KB cells; 100.0 μM): 27 h; effect on number of HFF cells present at 70 hours (in words) (HFF cells; 10 or 32 μM, 70 hours): no decrease in the number of cells |
| Nc1ncnc2c1c(Br)cn2COCCO [UMJD 102, 4-Amino-5-bromo-7-(2-hydroxyethoxymethyl)pyrrolo[2,3-d]-pyrimidine] | 28 µM | 43 h | 84 h | 30 h | cytostatic | more pronounced | one population doubling | minimal effective concentration (KB cells; Homo sapiens, KB, read-out: lowest concentration that inhibited growth of KB cells): 0.1 µM |
| Nc1ncnc2c1c(I)cn2COCCO [UMJD 104, 4-Amino-5-iodo-7-(2-hydroxyethoxymethyl)pyrrolo[2,3-d]-pyrimidine] | 54 µM | 25 h | 30 h | 26 h | – | more pronounced | one population doubling | – |
| Nc1ncnc2c1c(Br)cn2COC(CO)CO [UMJD 183, 4-amino-5-bromo-7-[(1,3-dihydroxy-2-propoxy)methyl]-pyrrolo[2,3-d]pyrimidine] | – | – | – | – | inhibited, but to a lesser extent | – | – | duration of KB cell growth in presence of drug before slowing or stopping (KB cells): up to 20 hours; KB cell growth for 50 hours (in words) (KB cells; up to 32 μM, 50 hours): at a reduced rate |
| OCC(CO)OCn1cc(Br)c2c(NO)ncnc21 [UMJD 299, 4-hydroxylamino-5-bromo-7-[(1,3-dihydroxy-2-propoxy)methyl]pyrrolo[2,3-d]pyrimidine] | – | – | – | – | considerably lesser effects on cell growth | – | – | KB cell growth rate (in words) (KB cells; 10 μM): nearly control rates |
